Each block holds one compound with its values, some of them ahead of it.
Experiments:
[1] = Non-competitive inhibition of alpha-glucosidase (unknown origin); parameters: species or system Homo sapiens
[2] = target: Aldo-keto reductase family 1 member B1 (Homo sapiens) (UniProt P15121); experiment: Inhibition of aldose reductase (unknown origin) at 10 ug/ml
Homo sapiens = species on record: Homo sapiens; experiment: Inhibition of ALR1 (unknown origin); conditions: concentration not given here
[3] = target: Aldo-keto reductase family 1 member B1 (Homo sapiens) (UniProt P15121); experiment: Inhibition of ALR2 (unknown origin); conditions: concentration not given here
Oryctolagus cuniculus = experiment: Reduction of blood glucose in normoglycemic rabbit at 50 mg/kg, po after 4 hrs; assay type: functional; parameters: scale not given: the % may be the effect or the level left
[4] = target: T1, Solute carrier family 2, facilitated glucose transporter member 4 (Rattus norvegicus) (UniProt P19357); experiment: Induction of GLUT4 translocation in rat L6 cells assessed as increase in 2-deoxyglucose uptake relative to control; assay type: cell-based
T1 sequence (whole entry): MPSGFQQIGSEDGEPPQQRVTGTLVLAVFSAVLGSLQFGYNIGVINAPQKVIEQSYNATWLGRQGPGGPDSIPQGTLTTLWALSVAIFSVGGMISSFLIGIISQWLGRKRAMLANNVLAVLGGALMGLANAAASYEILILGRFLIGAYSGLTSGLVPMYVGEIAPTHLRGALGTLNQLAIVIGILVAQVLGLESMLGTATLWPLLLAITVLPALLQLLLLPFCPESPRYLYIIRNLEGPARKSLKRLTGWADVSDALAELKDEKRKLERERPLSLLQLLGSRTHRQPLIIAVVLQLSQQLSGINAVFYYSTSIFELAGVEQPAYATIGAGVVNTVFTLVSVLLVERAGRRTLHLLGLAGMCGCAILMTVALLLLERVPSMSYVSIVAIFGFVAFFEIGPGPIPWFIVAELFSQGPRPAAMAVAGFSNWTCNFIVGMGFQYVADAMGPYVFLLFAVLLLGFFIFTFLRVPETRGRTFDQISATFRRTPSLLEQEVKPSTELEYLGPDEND

[5] = target: T2, Tyrosine-protein phosphatase non-receptor type 1 (Homo sapiens, UniProt P18031); experiment: Inhibition of PTP1B (unknown origin)
T2 sequence (P18031 whole entry): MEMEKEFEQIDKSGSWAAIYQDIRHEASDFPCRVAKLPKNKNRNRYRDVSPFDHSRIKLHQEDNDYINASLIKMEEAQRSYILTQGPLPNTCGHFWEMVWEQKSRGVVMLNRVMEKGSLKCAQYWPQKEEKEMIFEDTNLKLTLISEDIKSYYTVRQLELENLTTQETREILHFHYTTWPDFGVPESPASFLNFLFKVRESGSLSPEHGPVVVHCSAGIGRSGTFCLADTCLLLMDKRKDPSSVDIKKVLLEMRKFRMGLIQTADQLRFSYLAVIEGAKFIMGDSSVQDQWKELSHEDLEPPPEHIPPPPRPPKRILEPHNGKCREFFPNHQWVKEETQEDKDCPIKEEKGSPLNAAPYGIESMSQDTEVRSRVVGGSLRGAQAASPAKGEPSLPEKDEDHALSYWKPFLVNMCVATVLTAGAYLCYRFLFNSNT

[6] = target: T2, Tyrosine-protein phosphatase non-receptor type 1; experiment: Competitive inhibition of PTP1B (unknown origin) using p-nitrophenyl phosphate as substrate

IC50 [1]: 5.3 µM
Compound: CC1(C)CCc2cc(C(=O)/C=C/c3ccc(O)cc3)c(O)cc2O1

inhibition [2]: 55.6%
Compound: CC(/C=C1\SC(=S)N(CC(=O)O)C1=O)=C\c1ccccc1

inhibition (Homo sapiens): 35%
inhibition [3]: 35%
Compound: O=C(/C=C/c1ccc(Cl)cc1)c1ccc(O)cc1O

IC50 [1]: 5.3 µM
Compound: CC1(C)CCc2cc(C(=O)/C=C/c3ccc(O)c(O)c3)c(O)cc2O1

Compound: Cc1ccc(S(=O)(=O)CC(=O)Cc2ccccc2C(=O)/C=C/c2ccc(Cl)cc2Cl)cc1
Activity (Oryctolagus cuniculus): 38.73%

IC50 [1]: 8.8 µM
Compound: COc1cc(O)c(CC=C(C)C)c(O)c1C(=O)/C=C/c1ccc(O)cc1 [XANTHOHUMOL]

Ratio [4]: 1.9
Compound: CC(C)=CCC/C(C)=C/Cc1c(O)ccc(C(=O)/C=C/c2ccc(O)cc2)c1O

inhibition (Homo sapiens): 35%
inhibition [3]: 35%
Compound: COc1ccc(/C=C/C(=O)c2ccc(OC)cc2O)cc1

IC50 [1]: 5.3 µM
Compound: CC(C)=CCc1cc(C(=O)/C=C/c2ccc(O)cc2)c(O)cc1O [BROUSSOCHALCONE B]

IC50 [5]: 21.5 µM
IC50 [1]: 5.3 µM
Compound: CC(C)=CCc1cc(C(=O)/C=C/c2ccc(O)c(O)c2)c(O)cc1O [BROUSSOCHALCONE A]

inhibition [2]: 53.7%
Compound: C=C(C)C(CC=C(C)C)Cc1c(O)cc(OC)c(C(=O)/C(O)=C/c2ccc(O)cc2O)c1O (stereo unspecified)

IC50 [6]: 2.49 µM
Compound: O=C(/C=C/c1ccco1)c1ccc(O)cc1O

inhibition [2]: 53.7%
Compound: C=C(C)C(CCC(C)(C)O)Cc1c(O)cc(OC)c(C(=O)/C(O)=C/c2ccc(O)cc2O)c1O (stereo unspecified)

IC50 [6]: 2.9 µM
Compound: O=C(/C=C/c1ccco1)c1cccc(Cl)c1

inhibition (Homo sapiens): 35%
inhibition [3]: 35%
Compound: CSc1ccc(/C=C/C(=O)c2ccc(O)cc2O)cc1

inhibition [2]: 53.7%
Compound: COc1cc(O)c(CC=C(C)C)c(O)c1C(=O)/C(O)=C/c1ccc(O)cc1

Ratio [4]: 1.9
Compound: COc1ccc(C(=O)/C=C/c2ccc(O)cc2)c(O)c1CC=C(C)C

Reference: ChEMBL document CHEMBL3407496, “Chalcones and their therapeutic targets for the management of diabetes: structural and pharmacological perspectives” (Eur J Med Chem, 2015)
